“And” between values parts separate entries of the source, which are not always exact repeats. Identical values can stand only once. One block for each molecule: values may come before it. The source made the active and inactive calls.
Experiments:
[1] = potency of ADAM10 substrate cleavage blockers – biochemical, QFRET, dose response (AID 743254);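 also: ADAM10 enzyme with the DM2 quenched FRET peptide as substrate; EDANS fluorescence gain as the protease cuts the substrate; inhibitor potency against ADAM10 proteolytic activity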
[2] = target: T1, Disintegrin and metalloproteinase domain-containing protein 17 (Homo sapiens, UniProt P78536); assay: exosite inhibitors of ADAM17, dose response, biochemical (AID 743260)
[3] = target: T1, Disintegrin and metalloproteinase domain-containing protein 17; assay: inhibition of ADAM17 substrate cleavage – biochemical, quenched FRET substrate, counter-screen for ADAM10 exosite inhibitor project, dose response (AID 743253)
[4] = inhibition of Env-driven cell fusion – HIV entry, plate reader, dry powder, dose response (AID 687023); assay type: functional, cell-based
[5] = viability loss in CEM21 cells – cell-based, plate reader, dry powder, cytotoxicity control, dose response (AID 687026); assay type: functional
[6] = IC50 of insulin release inhibition, rat insulinoma INS-1E line, 5 mM glucose, cell-based (AID 1117331); assay type: functional
[7] = target: Cytochrome P450 2C9 (Homo sapiens, UniProt P11712)
[8] = target: T2, Heat shock factor protein 1 (Mus musculus, UniProt P38532); assay: decrease of HSF1-responsive luciferase luminescence – cell-based, NIH3T3, dose retest, confirmation (AID 2382); assay type: functional;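 also: NIH3T3 fibroblasts with HSF1-driven luciferase reporter stressed by proteasome inhibitor MG132; luminescence from HSF1-driven luciferase expression after 8 hours of MG132 stress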
T2 sequence (P38532 whole entry): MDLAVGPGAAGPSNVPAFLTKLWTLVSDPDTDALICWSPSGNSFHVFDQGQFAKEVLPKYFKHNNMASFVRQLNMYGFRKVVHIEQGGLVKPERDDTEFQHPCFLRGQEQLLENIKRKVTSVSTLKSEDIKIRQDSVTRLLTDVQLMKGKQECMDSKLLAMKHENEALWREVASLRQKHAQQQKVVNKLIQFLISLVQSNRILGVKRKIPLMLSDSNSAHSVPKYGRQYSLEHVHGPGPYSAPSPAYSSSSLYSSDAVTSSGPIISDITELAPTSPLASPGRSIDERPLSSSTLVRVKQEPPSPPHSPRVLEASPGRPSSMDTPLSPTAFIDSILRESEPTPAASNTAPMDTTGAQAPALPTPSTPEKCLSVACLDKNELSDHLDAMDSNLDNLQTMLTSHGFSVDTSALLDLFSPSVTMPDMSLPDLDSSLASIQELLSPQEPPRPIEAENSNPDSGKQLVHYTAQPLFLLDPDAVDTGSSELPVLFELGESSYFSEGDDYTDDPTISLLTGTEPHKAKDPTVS

[9] = target: Neurotensin receptor type 1 (Homo sapiens, UniProt P30989); assay type: functional;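 also: Image-based confirmatory dose-response assay measuring agonist activity at NTR1; NTR1-expressing U2OS osteosarcoma cells imaged for beta-arrestin GFP spot formation; agonist potency where compounds increase beta-arrestin recruitment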
[10] = target: COUP transcription factor 2 (Homo sapiens, UniProt P24468); assay: Luminescence-based cell-based high throughput dose response assay to identify inhibitors of COUP-TFII (NR2F2).; assay type: functional;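 also: HEK293 cells transiently cotransfected with COUP-TFII expression vector and reporter; luciferase reporter luminescence driven by COUP-TFII from the pX2-168 reporter plasmid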
[11] = target: Metabotropic glutamate receptor 5 (Rattus norvegicus, UniProt P31424); assay: Identification of a glycine sulfonamide based non-MPEP site positive allosteric potentiator (PAM) of mGlu5 (calcium_assay).; assay type: functional
[12] = target: Transthyretin (Homo sapiens, UniProt P02766); assay: Luminescence-based cell-based high throughput dose response assay to identify activators of Transthyretin (TTR) transcription.; assay type: functional

T1 sequence (P78536 whole entry, the tested form may be a part): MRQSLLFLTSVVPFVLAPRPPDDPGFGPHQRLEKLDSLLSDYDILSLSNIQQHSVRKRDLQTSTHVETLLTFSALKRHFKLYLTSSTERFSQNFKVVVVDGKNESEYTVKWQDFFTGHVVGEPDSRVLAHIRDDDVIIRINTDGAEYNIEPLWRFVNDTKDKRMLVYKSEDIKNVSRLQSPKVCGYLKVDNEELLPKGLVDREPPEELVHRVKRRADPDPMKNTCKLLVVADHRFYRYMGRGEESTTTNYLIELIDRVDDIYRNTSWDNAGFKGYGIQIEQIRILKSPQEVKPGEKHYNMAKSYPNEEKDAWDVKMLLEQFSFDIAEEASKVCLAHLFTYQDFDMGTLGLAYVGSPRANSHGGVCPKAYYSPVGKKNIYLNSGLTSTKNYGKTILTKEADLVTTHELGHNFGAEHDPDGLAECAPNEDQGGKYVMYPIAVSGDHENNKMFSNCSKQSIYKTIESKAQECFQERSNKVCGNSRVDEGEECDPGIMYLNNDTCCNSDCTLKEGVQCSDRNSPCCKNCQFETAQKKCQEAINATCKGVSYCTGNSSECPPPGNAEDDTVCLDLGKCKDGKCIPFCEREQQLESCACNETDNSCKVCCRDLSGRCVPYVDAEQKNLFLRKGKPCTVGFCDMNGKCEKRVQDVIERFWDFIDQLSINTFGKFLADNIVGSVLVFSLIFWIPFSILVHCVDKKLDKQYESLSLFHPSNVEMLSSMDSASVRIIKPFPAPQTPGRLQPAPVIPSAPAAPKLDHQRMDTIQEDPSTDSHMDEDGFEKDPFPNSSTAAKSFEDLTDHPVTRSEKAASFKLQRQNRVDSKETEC
Sequence of Metabotropic glutamate receptor 5 (P31424 whole entry): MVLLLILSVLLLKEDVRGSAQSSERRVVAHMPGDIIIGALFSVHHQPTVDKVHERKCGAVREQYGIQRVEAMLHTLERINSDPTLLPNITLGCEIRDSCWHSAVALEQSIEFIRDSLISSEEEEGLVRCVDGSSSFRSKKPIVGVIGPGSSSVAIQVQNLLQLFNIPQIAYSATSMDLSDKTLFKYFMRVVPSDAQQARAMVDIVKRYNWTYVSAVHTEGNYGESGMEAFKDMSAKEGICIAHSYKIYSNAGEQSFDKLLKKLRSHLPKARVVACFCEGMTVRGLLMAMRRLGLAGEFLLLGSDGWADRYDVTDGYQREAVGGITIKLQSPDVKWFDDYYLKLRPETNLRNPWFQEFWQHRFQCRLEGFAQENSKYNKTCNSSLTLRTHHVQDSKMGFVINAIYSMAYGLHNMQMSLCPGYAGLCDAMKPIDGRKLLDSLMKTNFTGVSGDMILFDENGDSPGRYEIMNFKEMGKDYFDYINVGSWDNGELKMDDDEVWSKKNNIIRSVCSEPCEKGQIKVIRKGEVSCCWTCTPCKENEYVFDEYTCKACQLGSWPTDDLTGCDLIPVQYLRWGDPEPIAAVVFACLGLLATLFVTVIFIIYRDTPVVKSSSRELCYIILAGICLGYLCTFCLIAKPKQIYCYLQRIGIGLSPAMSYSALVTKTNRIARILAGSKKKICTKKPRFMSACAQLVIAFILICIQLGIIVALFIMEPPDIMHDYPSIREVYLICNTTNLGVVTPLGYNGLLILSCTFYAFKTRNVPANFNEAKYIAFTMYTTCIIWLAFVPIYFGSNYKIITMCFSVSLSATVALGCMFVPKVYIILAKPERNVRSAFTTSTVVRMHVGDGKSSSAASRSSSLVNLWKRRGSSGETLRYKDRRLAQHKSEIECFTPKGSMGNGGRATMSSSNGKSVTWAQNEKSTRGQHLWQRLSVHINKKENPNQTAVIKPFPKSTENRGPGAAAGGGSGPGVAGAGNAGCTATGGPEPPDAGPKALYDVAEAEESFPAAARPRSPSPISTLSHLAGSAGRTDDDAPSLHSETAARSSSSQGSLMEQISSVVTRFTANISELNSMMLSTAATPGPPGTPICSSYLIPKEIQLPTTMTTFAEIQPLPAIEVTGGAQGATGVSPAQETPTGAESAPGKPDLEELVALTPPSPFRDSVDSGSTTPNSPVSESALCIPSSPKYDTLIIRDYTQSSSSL
Sequence of Neurotensin receptor type 1 (P30989 whole entry): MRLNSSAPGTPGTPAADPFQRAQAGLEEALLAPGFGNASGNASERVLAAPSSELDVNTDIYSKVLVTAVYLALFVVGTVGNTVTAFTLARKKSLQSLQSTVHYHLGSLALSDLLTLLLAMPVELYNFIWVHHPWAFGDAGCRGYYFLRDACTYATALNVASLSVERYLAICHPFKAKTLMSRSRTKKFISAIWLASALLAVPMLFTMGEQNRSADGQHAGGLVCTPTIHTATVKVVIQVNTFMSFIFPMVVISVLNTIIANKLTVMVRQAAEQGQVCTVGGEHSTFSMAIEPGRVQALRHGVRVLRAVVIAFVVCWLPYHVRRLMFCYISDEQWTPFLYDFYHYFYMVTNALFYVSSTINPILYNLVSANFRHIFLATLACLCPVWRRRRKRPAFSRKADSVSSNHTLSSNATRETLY
Sequence of Cytochrome P450 2C9 (P11712 whole entry): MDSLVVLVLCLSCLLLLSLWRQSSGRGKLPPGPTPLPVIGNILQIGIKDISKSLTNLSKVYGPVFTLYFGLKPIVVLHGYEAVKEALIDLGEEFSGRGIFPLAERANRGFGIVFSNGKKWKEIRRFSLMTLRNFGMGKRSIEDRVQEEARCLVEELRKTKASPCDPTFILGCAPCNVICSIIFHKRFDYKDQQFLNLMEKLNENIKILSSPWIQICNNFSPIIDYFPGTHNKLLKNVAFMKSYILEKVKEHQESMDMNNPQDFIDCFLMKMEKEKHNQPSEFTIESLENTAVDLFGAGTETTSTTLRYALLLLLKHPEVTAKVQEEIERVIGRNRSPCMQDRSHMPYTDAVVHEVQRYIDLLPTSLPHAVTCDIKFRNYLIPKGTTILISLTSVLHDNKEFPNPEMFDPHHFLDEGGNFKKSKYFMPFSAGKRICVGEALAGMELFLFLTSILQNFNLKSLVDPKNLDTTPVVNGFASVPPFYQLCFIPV
Sequence of COUP transcription factor 2 (P24468 whole entry): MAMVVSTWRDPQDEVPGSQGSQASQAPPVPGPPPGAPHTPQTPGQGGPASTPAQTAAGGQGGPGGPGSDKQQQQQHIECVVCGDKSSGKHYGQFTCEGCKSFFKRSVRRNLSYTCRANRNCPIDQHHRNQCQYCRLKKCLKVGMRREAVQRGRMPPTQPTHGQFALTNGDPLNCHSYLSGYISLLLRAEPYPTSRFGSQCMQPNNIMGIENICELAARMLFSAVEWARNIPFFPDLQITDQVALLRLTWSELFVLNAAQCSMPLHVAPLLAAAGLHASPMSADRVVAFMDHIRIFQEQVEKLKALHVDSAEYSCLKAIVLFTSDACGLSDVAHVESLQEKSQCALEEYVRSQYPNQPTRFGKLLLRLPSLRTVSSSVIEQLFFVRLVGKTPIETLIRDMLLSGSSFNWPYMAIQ

SMILES: CCCOc1ccc(S(=O)(=O)NCc2cccnc2)cc1
AC50 [4]: 13.1 µM (active) and 17.6 µM (active)
AC50 [5]: > 70 µM (inactive)

SMILES: COc1ccccc1N1CCN(CCCCNC(=O)c2ccc(-c3ccc(C(C)=O)cc3)cc2)CC1
IC50 [6]: > 33.3 µM (inactive)
AC50 [7]: inconclusive

Now from value to molecule:

IC50 [1]: > 69.5 µM (inactive)
IC50 [2]: > 69.5 µM (inactive)
IC50 [3]: > 69.5 µM (inactive)
SMILES: CC(=NNC(=O)CSc1nnc(-c2ccc(C(C)(C)C)cc2)n1-c1ccccc1)c1cccc2ccccc12

EC50 [8]: > 195 µM (not active)
EC50 [9]: 3.35 µM (active)
IC50 [10]: 8.54 µM (active)
SMILES: CCOC(=O)c1c(C)[nH]c(C(=O)OCC(=O)Nc2sccc2C(N)=O)c1C

EC50 [11]: 10 µM (inconclusive)
SMILES: CC(C)N(CC(=O)Nc1ccccc1)S(C)(=O)=O

EC50 [12]: > 167 µM (inactive)
SMILES: COc1ccc([C@@H]2CC=C(C(=O)O)[C@H](c3ccccc3F)N2S(=O)(=O)c2ccccc2C)cc1
